In PubChem BioAssay AID1963979 (Molecular Pharmacology Branch, DTP, NCI, 2024):

Tested on: 361931-004-R-J1-PDC multicell spheroid viability
Assay: Anticancer human tumor 361931-004-R-J1-PDC patient-derived colon adenocarcinoma cell line growth inhibition [PI3K]
Settings: for IC50: curve of first compound; for viability, T/C: stronger effect = lower value
How it was run: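 Viability of mixed-cell spheroids was determined after exposure to pairwise combinations, one partner being inavolisib, alpelisib, duvelisib or copanlisib. Highest tested concentration matched clinical Cmax where known and 10 microM where not, descending in half-log steps.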

[1] = second compound 0.0316 µM, first compound 0.0316 µM
[2] = second compound 0.0316 µM, first compound 0.1 µM
[3] = second compound 0.0316 µM, first compound 0.316 µM
[4] = second compound 0.0316 µM, first compound 1 µM
[5] = second compound 0.0316 µM, first compound 3.16 µM
[6] = second compound 0.0316 µM, first compound 10 µM
[7] = second compound 0.1 µM, first compound 0.0316 µM
[8] = second compound 0.1 µM, first compound 0.1 µM
[9] = second compound 0.1 µM, first compound 0.316 µM
[10] = second compound 0.1 µM, first compound 1 µM
[11] = second compound 0.1 µM, first compound 3.16 µM
[12] = second compound 0.1 µM, first compound 10 µM
[13] = second compound 0.316 µM, first compound 0.0316 µM
[14] = second compound 0.316 µM, first compound 0.1 µM
[15] = second compound 0.316 µM, first compound 0.316 µM
[16] = second compound 0.316 µM, first compound 1 µM
[17] = second compound 0.316 µM, first compound 3.16 µM
[18] = second compound 0.316 µM, first compound 10 µM
[19] = second compound 1 µM, first compound 0.0316 µM
[20] = second compound 1 µM, first compound 0.1 µM
[21] = second compound 1 µM, first compound 0.316 µM
[22] = second compound 1 µM, first compound 1 µM
[23] = second compound 1 µM, first compound 3.16 µM
[24] = second compound 1 µM, first compound 10 µM
[25] = second compound 3.16 µM, first compound 0.0316 µM
[26] = second compound 3.16 µM, first compound 0.1 µM
[27] = second compound 3.16 µM, first compound 0.316 µM
[28] = second compound 3.16 µM, first compound 1 µM
[29] = second compound 3.16 µM, first compound 3.16 µM
[30] = second compound 3.16 µM, first compound 10 µM
[31] = second compound 10 µM, first compound 0.0316 µM
[32] = second compound 10 µM, first compound 0.1 µM
[33] = second compound 10 µM, first compound 0.316 µM
[34] = second compound 10 µM, first compound 1 µM
[35] = second compound 10 µM, first compound 3.16 µM
[36] = second compound 10 µM, first compound 10 µM
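Also: spheroids exposed to agents for seven days before readout.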

Compound Cn1cnc2c(F)c(Nc3ccc(Br)cc3Cl)c(C(=O)NOCCO)cc21 + CC(Nc1ccc2c(c1)OCCn1cc(N3C(=O)OCC3C(F)F)nc1-2)C(N)=O has an IC50 (second compound 0.00316 µM) of 2.59 µM, an IC50 (second compound 0.01 µM) greater than 3 µM and an IC50 (second compound 0.0316 µM) of 2.11 µM. For the same compound, the IC50 (second compound 0.1 µM) was 1.14 µM, the IC50 (second compound 0.316 µM) was 0.556 µM and the IC50 (second compound 1 µM) was 0.158 µM. It also gave a viability, T/C (second compound 0.00316 µM, first compound 0.00949 µM) of 91.9%, a viability, T/C (second compound 0.00316 µM, first compound 0.03 µM) of 94.6% and a viability, T/C (second compound 0.00316 µM, first compound 0.0949 µM) of 80.4%. For the same compound, the viability, T/C (second compound 0.00316 µM, first compound 0.3 µM) was 80.1%, the viability, T/C (second compound 0.00316 µM, first compound 0.949 µM) was 75% and the viability, T/C (second compound 0.00316 µM, first compound 3 µM) was 45.5%. It also gave a viability, T/C (second compound 0.01 µM, first compound 0.00949 µM) of 99.4%, a viability, T/C (second compound 0.01 µM, first compound 0.03 µM) of 92.8% and a viability, T/C (second compound 0.01 µM, first compound 0.0949 µM) of 81.1%. It also gave a viability, T/C (second compound 0.01 µM, first compound 0.3 µM) of 72.4%, a viability, T/C (second compound 0.01 µM, first compound 0.949 µM) of 63.8% and a viability, T/C (second compound 0.01 µM, first compound 3 µM) of 51.9%. The viability, T/C (second compound 0.0316 µM, first compound 0.00949 µM) was 96.2%, the viability, T/C (second compound 0.0316 µM, first compound 0.03 µM) was 92.9% and the viability, T/C (second compound 0.0316 µM, first compound 0.0949 µM) was 83.8%. The viability, T/C (second compound 0.0316 µM, first compound 0.3 µM) was 70.4%, the viability, T/C (second compound 0.0316 µM, first compound 0.949 µM) was 62% and the viability, T/C (second compound 0.0316 µM, first compound 3 µM) was 45%. For the same compound, the viability, T/C (second compound 0.1 µM, first compound 0.00949 µM) was 90.8%, the viability, T/C (second compound 0.1 µM, first compound 0.03 µM) was 83.3% and the viability, T/C (second compound 0.1 µM, first compound 0.0949 µM) was 76.1%. It also gave a viability, T/C (second compound 0.1 µM, first compound 0.3 µM) of 73.2%, a viability, T/C (second compound 0.1 µM, first compound 0.949 µM) of 53.8% and a viability, T/C (second compound 0.1 µM, first compound 3 µM) of 28.5%. For the same compound, the viability, T/C (second compound 0.316 µM, first compound 0.00949 µM) was 86%, the viability, T/C (second compound 0.316 µM, first compound 0.03 µM) was 82.8% and the viability, T/C (second compound 0.316 µM, first compound 0.0949 µM) was 63.9%. For the same compound, the viability, T/C (second compound 0.316 µM, first compound 0.3 µM) was 62.4%, the viability, T/C (second compound 0.316 µM, first compound 0.949 µM) was 43.8% and the viability, T/C (second compound 0.316 µM, first compound 3 µM) was 14.7%. For the same compound, the viability, T/C (second compound 1 µM, first compound 0.00949 µM) was 72.8%, the viability, T/C (second compound 1 µM, first compound 0.03 µM) was 57.3% and the viability, T/C (second compound 1 µM, first compound 0.0949 µM) was 57.1%. The viability, T/C (second compound 1 µM, first compound 0.3 µM) was 46.4%, the viability, T/C (second compound 1 µM, first compound 0.949 µM) was 26.2% and the viability, T/C (second compound 1 µM, first compound 3 µM) was 8.6%.

In the case of Cn1nccc1Nc1nccc(-c2ccn(C(CO)c3ccc(Cl)c(F)c3)c(=O)c2)n1 (stereo unspecified) + CC(Nc1ncnc2nc[nH]c12)c1cc2cccc(Cl)c2c(=O)n1-c1ccccc1, the IC50 (second compound 0.0316 µM) is reported as greater than 10 µM, the IC50 (second compound 0.1 µM) is reported as greater than 10 µM and the IC50 (second compound 0.316 µM) is reported as greater than 10 µM. It also gave an IC50 (second compound 1 µM) greater than 10 µM, an IC50 (second compound 3.16 µM) of 9.79 µM and an IC50 (second compound 10 µM) of 5.14 µM. For the same compound, the viability, T/C [1] was 101%, the viability, T/C [2] was 98.8% and the viability, T/C [3] was 100%. For the same compound, the viability, T/C [4] was 97.7%, the viability, T/C [5] was 87.9% and the viability, T/C [6] was 60.2%. For the same compound, the viability, T/C [7] was 101%, the viability, T/C [8] was 99.4% and the viability, T/C [9] was 97%. The viability, T/C [10] was 93.2%, the viability, T/C [11] was 86.7% and the viability, T/C [12] was 65.2%. For the same compound, the viability, T/C [13] was 107%, the viability, T/C [14] was 107% and the viability, T/C [15] was 86.5%. The viability, T/C [16] was 93.8%, the viability, T/C [17] was 89.4% and the viability, T/C [18] was 61.3%. It also gave a viability, T/C [19] of 109%, a viability, T/C [20] of 99.5% and a viability, T/C [21] of 99.3%. It also gave a viability, T/C [22] of 90.8%, a viability, T/C [23] of 92.6% and a viability, T/C [24] of 56.5%. The viability, T/C [25] was 107%, the viability, T/C [26] was 105% and the viability, T/C [27] was 100%. The viability, T/C [28] was 92.2%, the viability, T/C [29] was 87.1% and the viability, T/C [30] was 48.3%. The viability, T/C [31] was 109%, the viability, T/C [32] was 99.5% and the viability, T/C [33] was 92.1%. For the same compound, the viability, T/C [34] was 83.8%, the viability, T/C [35] was 64.1% and the viability, T/C [36] was 31.4%.

C[C@@H](NC(=O)c1ncnc(N)c1Cl)c1ncc(C(=O)Nc2cc(C(F)(F)F)c(Cl)cn2)s1 + CC(Nc1ncnc2nc[nH]c12)c1cc2cccc(Cl)c2c(=O)n1-c1ccccc1 showed an IC50 (second compound 0.0316 µM) greater than 10 µM, an IC50 (second compound 0.1 µM) greater than 10 µM and an IC50 (second compound 0.316 µM) greater than 10 µM. For the same compound, the IC50 (second compound 1 µM) was greater than 10 µM, the IC50 (second compound 3.16 µM) was greater than 10 µM and the IC50 (second compound 10 µM) was greater than 10 µM. For the same compound, the viability, T/C [1] was 105%, the viability, T/C [2] was 102% and the viability, T/C [3] was 99.2%. The viability, T/C [4] was 94.1%, the viability, T/C [5] was 104% and the viability, T/C [6] was 98%. It also gave a viability, T/C [7] of 101%, a viability, T/C [8] of 101% and a viability, T/C [9] of 96%. For the same compound, the viability, T/C [10] was 95.3%, the viability, T/C [11] was 104% and the viability, T/C [12] was 94.6%. For the same compound, the viability, T/C [13] was 105%, the viability, T/C [14] was 103% and the viability, T/C [15] was 107%. The viability, T/C [16] was 104%, the viability, T/C [17] was 106% and the viability, T/C [18] was 93.7%. The viability, T/C [19] was 98.8%, the viability, T/C [20] was 99.9% and the viability, T/C [21] was 107%. It also gave a viability, T/C [22] of 103%, a viability, T/C [23] of 106% and a viability, T/C [24] of 91.7%. The viability, T/C [25] was 88.6%, the viability, T/C [26] was 110% and the viability, T/C [27] was 107%. It also gave a viability, T/C [28] of 99.5%, a viability, T/C [29] of 107% and a viability, T/C [30] of 101%. It also gave a viability, T/C [31] of 101%, a viability, T/C [32] of 96.7% and a viability, T/C [33] of 107%. For the same compound, the viability, T/C [34] was 107%, the viability, T/C [35] was 104% and the viability, T/C [36] was 87.7%.
